According to patent US9381173B2, “Isolated stereoisomeric forms of (S)2-N(3-O-(propan 2-Ol)-1-propyl-4-hydroxybenzene)-3-phenylpropylamide” (Novaremed Ltd., priority 2011, dated 2016):

Test system: tail flick model for nociceptive pain in mice
Assay: Tail flick test for nociceptive pain
Type: in vivo
Details: for Mean latency time Post-treatment: 30 minutes after administration; for Mean latency time Pre-treatment: baseline a day before
Procedure: In the present study the analgesic effect of the substantially pure enantiomers E1 and E2 was evaluated using the tail flick model for nociceptive pain in mice.
The experiment was performed using male ICR strain 7 weeks old mice (25-27 g) (supplied by Harlan Israel, Ltd.)
Response to pain was assessed using the tail flick method which utilizes an Ugo Basile tail flick instrument. The animal is placed and held gently on the Ugo Basile tail flick (TF) instrument surface with the tail straight back and above a photoelectric cell that served as heat source. The heat source and timer are turned on by a foot pedal press, and automatically switch off when the animal flicks its tail off the emitter. Latency is measured and analyzed as an analgesic effect.
Description of the Study: The baseline tail flick was measured a day before the experiment started. On the day of the experiment, animal body weights were first measured followed by the IP administration of the test items (vehicle, morphine, NRD 13 S E1 and E2). 30 minutes after administration of the test items, the animals were subjected to the tail-flick testing. The tail-flick experiments were followed by blood sampling of all groups. The experiment was terminated after spinal cords and brains of all groups have been collected.
Statistics and Data Evaluation: All parameters are represented as means and standard error of the mean (SEM). Data was analyzed using a two tailed, unpaired T-test to compare each treatment group to the Vehicle treated animals. A two-tailed, paired T-test was used to compare the pre-treatment and post-treatment of each treatment group. Probability values p<0.01 and p<0.05 are considered significant.

In the case of `CC(O)COCC(Cc1ccc(O)cc1)NC(=O)CCc1ccccc1` (single isomer, unassigned) [E1], the “increase of latency time between pretreatment and post treatment” value (3 mg/kg IP) is reported as “not statistically significant”, the “reducing pain when compared to the Vehicle” value (3 mg/kg IP) is reported as “not significantly active in reducing pain” and the “Mean latency time Post-treatment” value (3 mg/kg IP (group 3)) is reported as 9.53 ± 0.85 s. For the same compound, the “Mean latency time Pre-treatment” value (3 mg/kg IP (group 3)) was 7.62 ± 0.74 s, the “Mean latency time Post-treatment” value (10 mg/kg IP (groups 4, 6)) was 10.63 ± 0.64 s and the “Mean latency time Pre-treatment” value (10 mg/kg IP (groups 4, 6)) was 8.16 ± 0.39 s. For the same compound, the “Mean latency time Post-treatment” value (20 mg/kg IP (group 5)) was 10.65 ± 0.81 s, the “Mean latency time Pre-treatment” value (20 mg/kg IP (group 5)) was 7.58 ± 0.41 s and the “conclusion: pain relief activity” value (dose of 3 mg/kg) was “significant pain relief activity only in the calculated difference”. For the same compound, the “conclusion: reducing pain compared to the Vehicle treated group” value (doses of 10 mg/kg and 20 mg/kg) was “active in reducing pain”, the “pain relief activity by difference between pre- and post-treatment latency times vs. Vehicle” value (in particular at doses of 10 and 20 mg/kg (p<0.01)) was “significant pain relief activity” and the “pain analgesic in animal models of pain” value (summary statement, listed as (S,S) enantiomer) was “effective”.
